Laboratory results as given in PubChem BioAssay (NCI).
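Exposure lasted 48 hours, with cells grown in 96-well plates and compounds tested at five concentrations. Here, GI50 denotes the concentration required for 50% inhibition of growth. TGI: concentration producing complete growth inhibition.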

Test system: ACHN renal
Assay: NCI tumour cell line growth inhibition, 48 h

SMILES | GI50 | TGI
Cc1[nH]c2ccccc2c(=O)c1CC=C(Cl)Cl | 37.3 µM | > 100 µM
C1CCC([PH+](C2CCCCC2)C2CCCCC2[PH+](C2CCCCC2)C2CCCCC2)CC1.O=C(C1[CH-]CCCC1)C1CCCC[N-]1.[Au] (stereo not given) | 0.92 µM | 2.12 µM
Clc1ccc(C=Nc2ccc3c(c2)Cc2ccccc2-3)c(Cl)c1 | – | > 100 µM
CN(C)CCN1C(=O)c2ccc3c4c(ccc(c24)C1=O)C(=O)N(CCN=C=S)C3=O | 0.0256 µM | 0.123 µM
O=C(/C=C\c1ccc(NCc2ccc(C(=O)O)cc2)cc1)CCl | 16.1 µM | 31.6 µM
COc1cccc(C#Cc2ccccc2C#CCCCCO)c1 | 11.8 µM | 25.8 µM
CC(C)C[C@H](NC(=O)/C=C/Cn1ccc2ccccc2c1=O)B(O)O | 3.33 µM | > 100 µM
CC1=C[C@H]2c3c(c(O)c(O)c4oc(-c5ccccc5)cc(=O)c34)[C@H](c3cc(O)c(O)c4oc(-c5ccccc5)cc(=O)c34)[C@H]2C(C)(C)C1 | 0.679 µM | 5.67 µM
COc1ccc(/C=C/C(=O)C(CC2CCC2)C(=O)/C=C/c2ccc(OC)c(OC)c2)cc1OC | 1.48 µM | 2.95 µM
CCCCCCCCCCCCCCCCCCOc1ccccc1CC(=O)OCC[N+]1(C)CCCC1 | 4 µM | 16.4 µM

Test system: BT-549 breast
Assay: NCI tumour cell line growth inhibition, 48 h

SMILES | GI50 | TGI
Nc1ccc(-c2nc3ccc(Cc4ccc5nc(-c6ccc(N)cc6)[nH]c5c4)cc3[nH]2)cc1 | 9.86 µM | 67.2 µM
O=S(=O)(Nc1cc(Sc2cccc3cccnc23)c(O)c2ccccc12)c1ccccc1 | 2.9 µM | 16 µM
CN(C)C(=O)[C@H](O)[C@H](Cc1ccccc1)NC(=O)c1cc2cc(Cl)ccc2[nH]1 | 22.8 µM | 72.1 µM
CC(C)(C[C@H]1CN(S(=O)(=O)c2cccc(C(F)(F)F)c2)c2cc(-c3cc(F)cc(OC(F)F)c3)ccc2O1)C(=O)O | 5.9 µM | 22.3 µM
Cc1ccc(-c2nc3ccc(Cl)cc3c(=O)n2N2C(=O)CSC2c2ccccc2Cl)cc1 (stereo not given) | > 100 µM | > 100 µM
O=C(O)C1C(Br)(c2ccccc2)C1(Br)c1ccccc1 (stereo not given) | – | 49.5 µM
C#Cc1c(I)n(C2OC(CO[Si](C)(C)C(C)(C)C)C3OC(C)(C)OC32)c(=O)[nH]c1=O (stereo not given) | 16.4 µM | 31.2 µM
CCSc1nc(SCC)c2cn[nH]c2n1 | 37.5 µM | > 100 µM
ClCC[N+]12CC[N+](CCCl)(CC1)C2 | – | > 100 µM
COc1cc(C(=O)c2cc(C)c3[nH]c4ccc(C)cc4c3c2C)cc(OC)c1OC | < 0.01 µM | 2.45 µM
Cc1ccc2[nH]c(O)c(N=Nc3ccc(S(N)(=O)=O)cc3)c2c1 | 9.88 µM | > 18.4 µM
C/C(N=NC(=S)N(C)C)=C1\C=CC=CN1O | – | > 100 µM
C=C1CCC(CC[C@@H]2CC[C@]3(OC2)O[C@@]2(O)CC[C@]3(C)OC2(C)C)C(C)(C)[C@H]1C/C=C1/C(=O)OC[C@@H]1O (stereo not given in full) | – | 4.76 µM
Cn1c(=O)c(Cc2ccccc2F)cc2cnc(NC3CCOCC3)nc21 | > 25 µM | > 25 µM
CC1(C)[C@@H](OC(N)=O)[C@H]2O[C@H]2[C@]2(C=O)[C@H]3CC[C@]4(C)[C@@H](c5ccc(=O)oc5)[C@@H](Cl)C[C@]4(O)C3=CC[C@@H]12 | 0.00501 µM | 0.0103 µM
CCCCON(OC(=O)c1ccc2ccc3cccc4ccc1c2c34)C(C)=O | 19.2 µM | 42.7 µM
Cc1[nH]c2ccccc2c(=O)c1CC=C(Cl)Cl | 47 µM | > 100 µM
C1CCC([PH+](C2CCCCC2)C2CCCCC2[PH+](C2CCCCC2)C2CCCCC2)CC1.O=C(C1[CH-]CCCC1)C1CCCC[N-]1.[Au] (stereo not given) | 0.261 µM | 1.5 µM
Clc1ccc(C=Nc2ccc3c(c2)Cc2ccccc2-3)c(Cl)c1 | – | > 100 µM
CN(C)CCN1C(=O)c2ccc3c4c(ccc(c24)C1=O)C(=O)N(CCN=C=S)C3=O | 0.129 µM | 0.297 µM
O=C(/C=C\c1ccc(NCc2ccc(C(=O)O)cc2)cc1)CCl | 7.95 µM | 21.5 µM
COc1cccc(C#Cc2ccccc2C#CCCCCO)c1 | 3.07 µM | 20.2 µM
CC(C)C[C@H](NC(=O)/C=C/Cn1ccc2ccccc2c1=O)B(O)O | 2.67 µM | 13.7 µM
CC1=C[C@H]2c3c(c(O)c(O)c4oc(-c5ccccc5)cc(=O)c34)[C@H](c3cc(O)c(O)c4oc(-c5ccccc5)cc(=O)c34)[C@H]2C(C)(C)C1 | 1.58 µM | 8.59 µM
COc1ccc(/C=C/C(=O)C(CC2CCC2)C(=O)/C=C/c2ccc(OC)c(OC)c2)cc1OC | 1.54 µM | 4.04 µM
CCCCCCCCCCCCCCCCCCOc1ccccc1CC(=O)OCC[N+]1(C)CCCC1 | 2.59 µM | 6.95 µM

Test system: NCI-H226 lung
Assay: NCI tumour cell line growth inhibition, 48 h

SMILES | GI50 | TGI
Nc1ccc(-c2nc3ccc(Cc4ccc5nc(-c6ccc(N)cc6)[nH]c5c4)cc3[nH]2)cc1 | 8.06 µM | 36.9 µM
O=S(=O)(Nc1cc(Sc2cccc3cccnc23)c(O)c2ccccc12)c1ccccc1 | 2.45 µM | 25.4 µM
CN(C)C(=O)[C@H](O)[C@H](Cc1ccccc1)NC(=O)c1cc2cc(Cl)ccc2[nH]1 | 23 µM | > 88.2 µM
CC(C)(C[C@H]1CN(S(=O)(=O)c2cccc(C(F)(F)F)c2)c2cc(-c3cc(F)cc(OC(F)F)c3)ccc2O1)C(=O)O | 15.2 µM | 56 µM
Cc1ccc(-c2nc3ccc(Cl)cc3c(=O)n2N2C(=O)CSC2c2ccccc2Cl)cc1 (stereo not given) | 5.14 µM | > 100 µM
O=C(O)C1C(Br)(c2ccccc2)C1(Br)c1ccccc1 (stereo not given) | – | > 100 µM
C#Cc1c(I)n(C2OC(CO[Si](C)(C)C(C)(C)C)C3OC(C)(C)OC32)c(=O)[nH]c1=O (stereo not given) | 17.7 µM | 32.5 µM
CCSc1nc(SCC)c2cn[nH]c2n1 | 25.6 µM | > 100 µM
ClCC[N+]12CC[N+](CCCl)(CC1)C2 | – | > 100 µM
COc1cc(C(=O)c2cc(C)c3[nH]c4ccc(C)cc4c3c2C)cc(OC)c1OC | < 0.01 µM | > 100 µM
Cc1ccc2[nH]c(O)c(N=Nc3ccc(S(N)(=O)=O)cc3)c2c1 | 7.92 µM | > 25 µM
C/C(N=NC(=S)N(C)C)=C1\C=CC=CN1O | – | > 100 µM
C=C1CCC(CC[C@@H]2CC[C@]3(OC2)O[C@@]2(O)CC[C@]3(C)OC2(C)C)C(C)(C)[C@H]1C/C=C1/C(=O)OC[C@@H]1O (stereo not given in full) | – | 6.94 µM
Cn1c(=O)c(Cc2ccccc2F)cc2cnc(NC3CCOCC3)nc21 | > 25 µM | > 25 µM
CC1(C)[C@@H](OC(N)=O)[C@H]2O[C@H]2[C@]2(C=O)[C@H]3CC[C@]4(C)[C@@H](c5ccc(=O)oc5)[C@@H](Cl)C[C@]4(O)C3=CC[C@@H]12 | 0.00432 µM | 0.00811 µM
CCCCON(OC(=O)c1ccc2ccc3cccc4ccc1c2c34)C(C)=O | 21 µM | 53.3 µM
Cc1[nH]c2ccccc2c(=O)c1CC=C(Cl)Cl | 25.9 µM | > 100 µM
C1CCC([PH+](C2CCCCC2)C2CCCCC2[PH+](C2CCCCC2)C2CCCCC2)CC1.O=C(C1[CH-]CCCC1)C1CCCC[N-]1.[Au] (stereo not given) | 0.455 µM | 2.43 µM
Clc1ccc(C=Nc2ccc3c(c2)Cc2ccccc2-3)c(Cl)c1 | – | > 100 µM
CN(C)CCN1C(=O)c2ccc3c4c(ccc(c24)C1=O)C(=O)N(CCN=C=S)C3=O | 0.1 µM | 0.325 µM
O=C(/C=C\c1ccc(NCc2ccc(C(=O)O)cc2)cc1)CCl | 17.1 µM | 41.6 µM
COc1cccc(C#Cc2ccccc2C#CCCCCO)c1 | 15.7 µM | 40.5 µM
CC(C)C[C@H](NC(=O)/C=C/Cn1ccc2ccccc2c1=O)B(O)O | 1.76 µM | 3.63 µM
CC1=C[C@H]2c3c(c(O)c(O)c4oc(-c5ccccc5)cc(=O)c34)[C@H](c3cc(O)c(O)c4oc(-c5ccccc5)cc(=O)c34)[C@H]2C(C)(C)C1 | 1.36 µM | 3.59 µM
COc1ccc(/C=C/C(=O)C(CC2CCC2)C(=O)/C=C/c2ccc(OC)c(OC)c2)cc1OC | 2.68 µM | 6.74 µM
CCCCCCCCCCCCCCCCCCOc1ccccc1CC(=O)OCC[N+]1(C)CCCC1 | 2.2 µM | 6.09 µM

Test system: NCI/ADR-RES ovarian
Assay: NCI tumour cell line growth inhibition, 48 h

SMILES | GI50 | TGI
Nc1ccc(-c2nc3ccc(Cc4ccc5nc(-c6ccc(N)cc6)[nH]c5c4)cc3[nH]2)cc1 | > 100 µM | > 100 µM
